Experimental data: PubChem BioAssay (NCI)
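The compound was tested at five concentrations on cells cultured in 96-well plates, with a 48-hour exposure period. Abbreviation: GI50, concentration required for 50% inhibition of growth. TGI marks complete inhibition of growth.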

Tests used:
Assay in all cases: NCI-60 cell line screen, 48 h
PC-3 prostate = system: PC-3 prostate
NCI-H522 lung = system: NCI-H522 lung
DU-145 prostate = system: DU-145 prostate
HOP-92 NSCLC = system: HOP-92 NSCLC
SF-539 CNS = system: SF-539 CNS
HT29 colon = system: HT29 colon
NCI-H23 lung = system: NCI-H23 lung
HCT-15 colon = system: HCT-15 colon
UACC-257 melanoma = system: UACC-257 melanoma
M14 melanoma = system: M14 melanoma
SN12C renal = system: SN12C renal
SK-MEL-28 melanoma = system: SK-MEL-28 melanoma
MALME-3M melanoma = system: MALME-3M melanoma
OVCAR-8 ovarian = system: OVCAR-8 ovarian
HL-60(TB) leukemia = system: HL-60(TB) leukemia
NCI/ADR-RES ovarian = system: NCI/ADR-RES ovarian
SNB-19 CNS = system: SNB-19 CNS
RXF 393 renal = system: RXF 393 renal
HCC-2998 colon = system: HCC-2998 colon
LOX IMVI melanoma = system: LOX IMVI melanoma
SK-MEL-2 melanoma = system: SK-MEL-2 melanoma
MDA-MB-435 = system: MDA-MB-435
A549 NSCLC = system: A549 NSCLC
U251 CNS = system: U251 CNS
SK-OV-3 ovarian = system: SK-OV-3 ovarian
A498 renal = system: A498 renal
BT-549 breast = system: BT-549 breast
SW-620 colon = system: SW-620 colon
SR leukemia = system: SR leukemia
KM12 colon = system: KM12 colon
MCF7 breast = system: MCF7 breast
MDA-MB-231 breast = system: MDA-MB-231 breast
EKVX NSCLC = system: EKVX NSCLC
HOP-62 NSCLC = system: HOP-62 NSCLC
RPMI-8226 leukemia = system: RPMI-8226 leukemia
MOLT-4 leukemia = system: MOLT-4 leukemia
UO-31 renal = system: UO-31 renal
OVCAR-3 ovarian = system: OVCAR-3 ovarian
IGROV1 ovarian = system: IGROV1 ovarian
CCRF-CEM leukemia = system: CCRF-CEM leukemia
SF-295 CNS = system: SF-295 CNS
CAKI-1 renal = system: CAKI-1 renal
786-0 renal = system: 786-0 renal
NCI-H460 lung = system: NCI-H460 lung
ACHN renal = system: ACHN renal
HS 578T breast = system: HS 578T breast
OVCAR-4 ovarian = system: OVCAR-4 ovarian
SK-MEL-5 melanoma = system: SK-MEL-5 melanoma
HCT-116 colon = system: HCT-116 colon
UACC-62 melanoma = system: UACC-62 melanoma
T-47D breast = system: T-47D breast
SF-268 CNS = system: SF-268 CNS
K-562 leukemia = system: K-562 leukemia
TK-10 renal = system: TK-10 renal
NCI-H226 lung = system: NCI-H226 lung
OVCAR-5 ovarian = system: OVCAR-5 ovarian
SNB-75 CNS = system: SNB-75 CNS

For O=C1N[C@@H]2[C@@H](O)[C@@H](O)[C@H](O)C[C@H]2c2cc3c(c(O)c21)OCO3, which GI50 (PC-3 prostate) is on record?
Its GI50 is 193 nM.

What about the TGI (PC-3 prostate) of the same compound?
The TGI was 1630 nM.

What about the GI50 (NCI-H522 lung) of the same compound?
Its GI50 is 85.2 nM.

And the TGI (NCI-H522 lung)?
Its TGI is 527 nM.

And the GI50 (DU-145 prostate)?
The GI50 was 90.7 nM.

And the TGI (DU-145 prostate)?
The TGI was 647 nM.

What about the GI50 (HOP-92 NSCLC) of the same compound?
Its GI50 is 86.8 nM.

What about the TGI (HOP-92 NSCLC) of the same compound?
The TGI was 890 nM.

What about the GI50 (SF-539 CNS) of the same compound?
The GI50 was 101 nM.

What about the TGI (SF-539 CNS) of the same compound?
The TGI was 548 nM.

What about the GI50 (HT29 colon) of the same compound?
Its GI50 is 119 nM.

What about the TGI (HT29 colon) of the same compound?
Its TGI is 1050 nM.

And the GI50 (NCI-H23 lung)?
The GI50 was 102 nM.

And the TGI (NCI-H23 lung)?
The TGI was 544 nM.

What about the GI50 (HCT-15 colon) of the same compound?
Its GI50 is 116 nM.

And the TGI (HCT-15 colon)?
Its TGI is 1300 nM.

What about the GI50 (UACC-257 melanoma) of the same compound?
The GI50 was 131 nM.

And the TGI (UACC-257 melanoma)?
Its TGI is 894 nM.

What about the GI50 (M14 melanoma) of the same compound?
Its GI50 is 81.3 nM.

What about the TGI (M14 melanoma) of the same compound?
The TGI was 357 nM.

What about the GI50 (SN12C renal) of the same compound?
Its GI50 is 93.6 nM.

And the TGI (SN12C renal)?
Its TGI is 1030 nM.

And the GI50 (SK-MEL-28 melanoma)?
The GI50 was 96.5 nM.

And the TGI (SK-MEL-28 melanoma)?
Its TGI is 608 nM.

And the GI50 (MALME-3M melanoma)?
The GI50 was 128 nM.

And the TGI (MALME-3M melanoma)?
Its TGI is 537 nM.

And the GI50 (OVCAR-8 ovarian)?
The GI50 was 100 nM.

What about the TGI (OVCAR-8 ovarian) of the same compound?
Its TGI is 1390 nM.

And the GI50 (HL-60(TB) leukemia)?
Its GI50 is 97.3 nM.

What about the TGI (HL-60(TB) leukemia) of the same compound?
The TGI was 472 nM.

What about the GI50 (NCI/ADR-RES ovarian) of the same compound?
The GI50 was 223 nM.

What about the TGI (NCI/ADR-RES ovarian) of the same compound?
Its TGI is 1650 nM.

What about the GI50 (SNB-19 CNS) of the same compound?
Its GI50 is 73.7 nM.

And the TGI (SNB-19 CNS)?
The TGI was 899 nM.

What about the GI50 (RXF 393 renal) of the same compound?
Its GI50 is 131 nM.

And the TGI (RXF 393 renal)?
Its TGI is 562 nM.

What about the GI50 (HCC-2998 colon) of the same compound?
Its GI50 is 95.7 nM.

And the TGI (HCC-2998 colon)?
The TGI was 418 nM.

And the GI50 (LOX IMVI melanoma)?
Its GI50 is 53.6 nM.

And the TGI (LOX IMVI melanoma)?
Its TGI is 224 nM.

What about the GI50 (SK-MEL-2 melanoma) of the same compound?
The GI50 was 98.4 nM.

What about the TGI (SK-MEL-2 melanoma) of the same compound?
Its TGI is 415 nM.

And the GI50 (MDA-MB-435)?
The GI50 was 113 nM.

What about the TGI (MDA-MB-435) of the same compound?
Its TGI is 648 nM.

And the GI50 (A549 NSCLC)?
The GI50 was 185 nM.

What about the TGI (A549 NSCLC) of the same compound?
The TGI was 2230 nM.

And the GI50 (U251 CNS)?
Its GI50 is 73.6 nM.

What about the TGI (U251 CNS) of the same compound?
The TGI was 1060 nM.

And the GI50 (SK-OV-3 ovarian)?
The GI50 was 211 nM.

What about the TGI (SK-OV-3 ovarian) of the same compound?
The TGI was 2100 nM.

And the GI50 (A498 renal)?
Its GI50 is 200 nM.

What about the TGI (A498 renal) of the same compound?
The TGI was 541 nM.

And the GI50 (BT-549 breast)?
Its GI50 is 206 nM.

And the TGI (BT-549 breast)?
Its TGI is 803 nM.

What about the GI50 (SW-620 colon) of the same compound?
Its GI50 is 91.8 nM.

And the TGI (SW-620 colon)?
Its TGI is 3260 nM.

And the GI50 (SR leukemia)?
The GI50 was 103 nM.

What about the TGI (SR leukemia) of the same compound?
The TGI was > 100000 nM.

And the GI50 (KM12 colon)?
Its GI50 is 77.8 nM.

And the TGI (KM12 colon)?
The TGI was 584 nM.

What about the GI50 (MCF7 breast) of the same compound?
Its GI50 is 65.6 nM.

And the TGI (MCF7 breast)?
Its TGI is 881 nM.

What about the GI50 (MDA-MB-231 breast) of the same compound?
The GI50 was 136 nM.

What about the TGI (MDA-MB-231 breast) of the same compound?
Its TGI is 926 nM.

What about the GI50 (EKVX NSCLC) of the same compound?
Its GI50 is 193 nM.

What about the TGI (EKVX NSCLC) of the same compound?
The TGI was 1260 nM.

What about the GI50 (HOP-62 NSCLC) of the same compound?
Its GI50 is 97.7 nM.

What about the TGI (HOP-62 NSCLC) of the same compound?
The TGI was 883 nM.

What about the GI50 (RPMI-8226 leukemia) of the same compound?
The GI50 was 169 nM.

What about the TGI (RPMI-8226 leukemia) of the same compound?
Its TGI is 687 nM.

And the GI50 (MOLT-4 leukemia)?
The GI50 was 143 nM.

And the TGI (MOLT-4 leukemia)?
Its TGI is > 100000 nM.

And the GI50 (UO-31 renal)?
The GI50 was 147 nM.

And the TGI (UO-31 renal)?
The TGI was 1110 nM.

What about the GI50 (OVCAR-3 ovarian) of the same compound?
The GI50 was 147 nM.

And the TGI (OVCAR-3 ovarian)?
The TGI was 794 nM.

And the GI50 (IGROV1 ovarian)?
The GI50 was 207 nM.

What about the TGI (IGROV1 ovarian) of the same compound?
Its TGI is 1470 nM.

And the GI50 (CCRF-CEM leukemia)?
The GI50 was 105 nM.

And the GI50 (SF-295 CNS)?
Its GI50 is 157 nM.

And the TGI (SF-295 CNS)?
Its TGI is 1050 nM.

What about the GI50 (CAKI-1 renal) of the same compound?
Its GI50 is 142 nM.

And the TGI (CAKI-1 renal)?
The TGI was 1160 nM.

What about the GI50 (786-0 renal) of the same compound?
Its GI50 is 174 nM.

What about the TGI (786-0 renal) of the same compound?
The TGI was 1590 nM.

And the GI50 (NCI-H460 lung)?
Its GI50 is 83.8 nM.

And the TGI (NCI-H460 lung)?
The TGI was 743 nM.

What about the GI50 (ACHN renal) of the same compound?
The GI50 was 132 nM.

What about the TGI (ACHN renal) of the same compound?
Its TGI is 825 nM.

And the GI50 (HS 578T breast)?
Its GI50 is 113 nM.

And the TGI (HS 578T breast)?
The TGI was 713 nM.

What about the GI50 (OVCAR-4 ovarian) of the same compound?
The GI50 was 99.4 nM.

What about the TGI (OVCAR-4 ovarian) of the same compound?
Its TGI is 975 nM.

What about the GI50 (SK-MEL-5 melanoma) of the same compound?
The GI50 was 84.1 nM.

What about the TGI (SK-MEL-5 melanoma) of the same compound?
The TGI was 344 nM.

What about the GI50 (HCT-116 colon) of the same compound?
Its GI50 is 66 nM.

What about the TGI (HCT-116 colon) of the same compound?
The TGI was 1070 nM.

And the GI50 (UACC-62 melanoma)?
The GI50 was 178 nM.

And the TGI (UACC-62 melanoma)?
The TGI was 830 nM.

And the GI50 (T-47D breast)?
The GI50 was 79.9 nM.

And the TGI (T-47D breast)?
Its TGI is 2120 nM.

And the GI50 (SF-268 CNS)?
Its GI50 is 144 nM.

And the TGI (SF-268 CNS)?
The TGI was 991 nM.

And the GI50 (K-562 leukemia)?
Its GI50 is 83.4 nM.

And the TGI (K-562 leukemia)?
Its TGI is > 100000 nM.

And the GI50 (TK-10 renal)?
Its GI50 is 264 nM.

And the TGI (TK-10 renal)?
The TGI was 1730 nM.

What about the GI50 (NCI-H226 lung) of the same compound?
Its GI50 is 128 nM.

And the TGI (NCI-H226 lung)?
The TGI was 699 nM.

And the GI50 (OVCAR-5 ovarian)?
Its GI50 is 238 nM.

And the TGI (OVCAR-5 ovarian)?
The TGI was 1610 nM.

What about the GI50 (SNB-75 CNS) of the same compound?
The GI50 was 89.8 nM.

And the TGI (SNB-75 CNS)?
The TGI was 861 nM.
